Results from patent US11833133B2, “Solid oral pharmaceutical composition” (Orient Pharma Co., Ltd., priority 2020, dated 2023).

What was measured:
[1] = tested on: nephrectomized rats fed high-cholesterol; conditions: cited from earlier work
[2] = Long term stability of composition of pitavastatin calcium and ezetimibe (25° C./60% RH); assay type: physicochemical; conditions: Example 5 composition, Alu-alu blisters
Method: The composition of pitavastatin calcium and ezetimibe prepared in Example 5 of the present disclosure were packed in Alu-alu blisters and stored under long term stability (25° C./60% RH). The assay of pitavastatin calcium and ezetimibe as well as the impurities were measured.

[3] = Dissolution test, USP apparatus II (Paddle Method) with sinkers, HPLC; assay type: physicochemical
Method: Dissolution Methods and Assay
Dissolution medium such as 0.1N HCl, phosphate buffer (pH 4.5) and phosphate buffer (pH 6.8) were prepared following USP Method. 0.3% Tween 80 was added into the medium to help solubilize the active ingredients. Dissolution conditions were summarized as in the following. Dissolution samples were analyzed by HPLC method.
Apparatus: USP apparatus II (Paddle Method) with sinkers.
Medium: 0.1N HCl, Phosphate Buffer phosphate buffer (pH 4.5) or Phosphate Buffer phosphate buffer (pH 6.8).
Filter: 10 μm HDPE full flow filter tips

[4] = tested on: chronic kidney disease patients; conditions: ezetimibe 10 mg/day co-administered with pitavastatin calcium 2 mg/day; cited from earlier work
[5] = Example 1 single layered tablet, 5 min
[6] = Example 1 single layered tablet, 10 min
[7] = Example 1 single layered tablet, 15 min
[8] = Example 1 single layered tablet, 30 min
[9] = Example 1 single layered tablet, 45 min
[10] = Example 2 double layered tablet, 5 min
[11] = Example 2 double layered tablet, 10 min
[12] = Example 2 double layered tablet, 15 min
[13] = Example 2 double layered tablet, 30 min
[14] = Example 2 double layered tablet, 45 min
[15] = pellets in one capsule (Example 5), 5 min
[16] = pellets in one capsule (Example 5), 10 min
[17] = pellets in one capsule (Example 5), 15 min
[18] = pellets in one capsule (Example 5), 20 min
[19] = pellets in one capsule (Example 5), 30 min
[20] = pellets in one capsule (Example 5), 45 min

## O=C([O-])C[C@H](O)C[C@H](O)/C=C/c1c(C2CC2)nc2ccccc2c1-c1ccc(F)cc1.O=C([O-])C[C@H](O)C[C@H](O)/C=C/c1c(C2CC2)nc2ccccc2c1-c1ccc(F)cc1.[Ca+2] [Pitavastatin Ca, pitavastatin calcium]
[1]
  Kidney dysfunction / kidney damage: additively ameliorates kidney damage
[2]; 3 Months
  Assay (%): 96.4%
  Impurities (%), Major: 0.03%
  Impurities (%), Total: 0.03%
[2]; 6 Months
  Assay (%): 97%
  Impurities (%), Major: 0.09%
  Impurities (%), Total: 0.09%
[2]; 9 Months
  Assay (%): 95%
  Impurities (%), Major: 0.08%
  Impurities (%), Total: 0.13%
[2]; 12 Months
  Assay (%): 96.5%
  Impurities (%), Major: 0.05%
  Impurities (%), Total: 0.05%
[2]; Initial
  Assay (%): 98.2%
  Impurities (%), Major: 0.02%
  Impurities (%), Total: 0.02%
[3]; [5]
  % Released into 0.1 N HCl with 0.3% Tween 80 at sampling time (min): 79%
  % Released into Phosphate Buffer (pH 6.8) with 0.3% Tween 80 at sampling time (min): 69%
[3]; [6]
  % Released into 0.1 N HCl with 0.3% Tween 80 at sampling time (min): 84%
  % Released into Phosphate Buffer (pH 6.8) with 0.3% Tween 80 at sampling time (min): 90%
[3]; [7]
  % Released into 0.1 N HCl with 0.3% Tween 80 at sampling time (min): 86%
  % Released into Phosphate Buffer (pH 6.8) with 0.3% Tween 80 at sampling time (min): 95%
[3]; [8]
  % Released into 0.1 N HCl with 0.3% Tween 80 at sampling time (min): 89%
  % Released into Phosphate Buffer (pH 6.8) with 0.3% Tween 80 at sampling time (min): 97%
[3]; [9]
  % Released into 0.1 N HCl with 0.3% Tween 80 at sampling time (min): 90%
  % Released into Phosphate Buffer (pH 6.8) with 0.3% Tween 80 at sampling time (min): 98%
[3]; [10]
  % Released into 0.1 N HCl with 0.3% Tween 80 at sampling time (min): 81%
  % Released into Phosphate Buffer (pH 6.8) with 0.3% Tween 80 at sampling time (min): 90%
[3]; [11]
  % Released into 0.1 N HCl with 0.3% Tween 80 at sampling time (min): 87%
  % Released into Phosphate Buffer (pH 6.8) with 0.3% Tween 80 at sampling time (min): 96%
[3]; [12]
  % Released into 0.1 N HCl with 0.3% Tween 80 at sampling time (min): 89%
  % Released into Phosphate Buffer (pH 6.8) with 0.3% Tween 80 at sampling time (min): 97%
[3]; [13]
  % Released into 0.1 N HCl with 0.3% Tween 80 at sampling time (min): 86%
  % Released into Phosphate Buffer (pH 6.8) with 0.3% Tween 80 at sampling time (min): 99%
[3]; [14]
  % Released into 0.1 N HCl with 0.3% Tween 80 at sampling time (min): 89%
  % Released into Phosphate Buffer (pH 6.8) with 0.3% Tween 80 at sampling time (min): 100%
[3]; [15]
  % Released into 0.1 N HCl with 0.3% Tween 80 at sampling time (min): 90%
  % Released into Phosphate Buffer (pH 4.5) with 0.3% Tween 80 at sampling time (min): 82%
  % Released into Phosphate Buffer (pH 6.8) with 0.3% Tween 80 at sampling time (min): 81%
[3]; [16]
  % Released into 0.1 N HCl with 0.3% Tween 80 at sampling time (min): 99%
  % Released into Phosphate Buffer (pH 4.5) with 0.3% Tween 80 at sampling time (min): 100%
  % Released into Phosphate Buffer (pH 6.8) with 0.3% Tween 80 at sampling time (min): 98%
[3]; [17]
  % Released into 0.1 N HCl with 0.3% Tween 80 at sampling time (min): 100%
  % Released into Phosphate Buffer (pH 4.5) with 0.3% Tween 80 at sampling time (min): 102%
  % Released into Phosphate Buffer (pH 6.8) with 0.3% Tween 80 at sampling time (min): 102%
[3]; [18]
  % Released into 0.1 N HCl with 0.3% Tween 80 at sampling time (min): 100%
  % Released into Phosphate Buffer (pH 4.5) with 0.3% Tween 80 at sampling time (min): 102%
  % Released into Phosphate Buffer (pH 6.8) with 0.3% Tween 80 at sampling time (min): 102%
[3]; [19]
  % Released into 0.1 N HCl with 0.3% Tween 80 at sampling time (min): 100%
  % Released into Phosphate Buffer (pH 4.5) with 0.3% Tween 80 at sampling time (min): 102%
  % Released into Phosphate Buffer (pH 6.8) with 0.3% Tween 80 at sampling time (min): 102%
[3]; [20]
  % Released into 0.1 N HCl with 0.3% Tween 80 at sampling time (min): 99%
  % Released into Phosphate Buffer (pH 4.5) with 0.3% Tween 80 at sampling time (min): 102%
  % Released into Phosphate Buffer (pH 6.8) with 0.3% Tween 80 at sampling time (min): 102%

## O=C1[C@H](CC[C@H](O)c2ccc(F)cc2)[C@@H](c2ccc(O)cc2)N1c1ccc(F)cc1 [Ezetimibe, ezetimibe]
[1]
  Kidney dysfunction / kidney damage: confers renoprotective effects
[2]; 3 Months
  Assay (%): 99.5%
  Impurities (%), Major: 0.06%
  Impurities (%), Total: 0.06%
[2]; 6 Months
  Assay (%): 101%
  Impurities (%), Major: 0.06%
  Impurities (%), Total: 0.06%
[2]; 9 Months
  Assay (%): 102.9%
  Impurities (%), Major: 0.06%
  Impurities (%), Total: 0.06%
[2]; 12 Months
  Assay (%): 99.7%
  Impurities (%), Major: 0.06%
  Impurities (%), Total: 0.06%
[2]; Initial
  Assay (%): 100%
  Impurities (%), Major: 0.06%
  Impurities (%), Total: 0.06%
[3]; [5]
  % Released into 0.1 N HCl with 0.3% Tween 80 at sampling time (min): 56%
  % Released into Phosphate Buffer (pH 6.8) with 0.3% Tween 80 at sampling time (min): 54%
[3]; [6]
  % Released into 0.1 N HCl with 0.3% Tween 80 at sampling time (min): 70%
  % Released into Phosphate Buffer (pH 6.8) with 0.3% Tween 80 at sampling time (min): 77%
[3]; [7]
  % Released into 0.1 N HCl with 0.3% Tween 80 at sampling time (min): 77%
  % Released into Phosphate Buffer (pH 6.8) with 0.3% Tween 80 at sampling time (min): 86%
[3]; [8]
  % Released into 0.1 N HCl with 0.3% Tween 80 at sampling time (min): 86%
  % Released into Phosphate Buffer (pH 6.8) with 0.3% Tween 80 at sampling time (min): 94%
[3]; [9]
  % Released into 0.1 N HCl with 0.3% Tween 80 at sampling time (min): 91%
  % Released into Phosphate Buffer (pH 6.8) with 0.3% Tween 80 at sampling time (min): 96%
[3]; [10]
  % Released into 0.1 N HCl with 0.3% Tween 80 at sampling time (min): 30%
  % Released into Phosphate Buffer (pH 6.8) with 0.3% Tween 80 at sampling time (min): 42%
[3]; [11]
  % Released into 0.1 N HCl with 0.3% Tween 80 at sampling time (min): 56%
  % Released into Phosphate Buffer (pH 6.8) with 0.3% Tween 80 at sampling time (min): 72%
[3]; [12]
  % Released into 0.1 N HCl with 0.3% Tween 80 at sampling time (min): 67%
  % Released into Phosphate Buffer (pH 6.8) with 0.3% Tween 80 at sampling time (min): 80%
[3]; [13]
  % Released into 0.1 N HCl with 0.3% Tween 80 at sampling time (min): 79%
  % Released into Phosphate Buffer (pH 6.8) with 0.3% Tween 80 at sampling time (min): 88%
[3]; [14]
  % Released into 0.1 N HCl with 0.3% Tween 80 at sampling time (min): 83%
  % Released into Phosphate Buffer (pH 6.8) with 0.3% Tween 80 at sampling time (min): 91%
[3]; [15]
  % Released into 0.1 N HCl with 0.3% Tween 80 at sampling time (min): 71%
  % Released into Phosphate Buffer (pH 4.5) with 0.3% Tween 80 at sampling time (min): 64%
  % Released into Phosphate Buffer (pH 6.8) with 0.3% Tween 80 at sampling time (min): 69%
[3]; [16]
  % Released into 0.1 N HCl with 0.3% Tween 80 at sampling time (min): 95%
  % Released into Phosphate Buffer (pH 4.5) with 0.3% Tween 80 at sampling time (min): 99%
  % Released into Phosphate Buffer (pH 6.8) with 0.3% Tween 80 at sampling time (min): 96%
[3]; [17]
  % Released into 0.1 N HCl with 0.3% Tween 80 at sampling time (min): 99%
  % Released into Phosphate Buffer (pH 4.5) with 0.3% Tween 80 at sampling time (min): 103%
  % Released into Phosphate Buffer (pH 6.8) with 0.3% Tween 80 at sampling time (min): 102%
[3]; [18]
  % Released into 0.1 N HCl with 0.3% Tween 80 at sampling time (min): 100%
  % Released into Phosphate Buffer (pH 4.5) with 0.3% Tween 80 at sampling time (min): 104%
  % Released into Phosphate Buffer (pH 6.8) with 0.3% Tween 80 at sampling time (min): 103%
[3]; [19]
  % Released into 0.1 N HCl with 0.3% Tween 80 at sampling time (min): 101%
  % Released into Phosphate Buffer (pH 4.5) with 0.3% Tween 80 at sampling time (min): 105%
  % Released into Phosphate Buffer (pH 6.8) with 0.3% Tween 80 at sampling time (min): 104%
[3]; [20]
  % Released into 0.1 N HCl with 0.3% Tween 80 at sampling time (min): 101%
  % Released into Phosphate Buffer (pH 4.5) with 0.3% Tween 80 at sampling time (min): 105%
  % Released into Phosphate Buffer (pH 6.8) with 0.3% Tween 80 at sampling time (min): 104%
[4]
  Proteinuria-lowering effects: enhances proteinuria-lowering effects of pitavastatin calcium
